Results reported in ChEMBL document CHEMBL4402608 (J Med Chem, 2020).

Legend:
Type in all cases: cell-based
[1] = molecular target: D(3) dopamine receptor (Homo sapiens, UniProt P35462); assay: Agonist activity at human D3R expressed in CHOK1 cells assessed as induction of beta-arrestin recruitment measured after 90 mins by beta-galactosidase based PathHunter assay
[2] = molecular target: T1, D(2) dopamine receptor (Homo sapiens, UniProt P14416); assay: Antagonist activity at human D2R expressed in CHOK1 cells assessed as inhibition of dopamine-induced beta-arrestin recruitment measured after 120 mins by beta-galactosidase based PathHunter assay
[3] = molecular target: T1, D(2) dopamine receptor; assay: Agonist activity at human D2R expressed in CHOK1 cells assessed as induction of beta-arrestin recruitment measured after 90 mins by beta-galactosidase based PathHunter assay

EC50 ([1]; read-out: EC50)	IC50 ([2]; read-out: IC50)	EC50 ([3]; read-out: EC50)	IC50 [2]	EC50 [3]	EC50 [1]	SMILES
160 nM	> 100000 nM	7100 nM	–	–	–	COc1ccc(OCCN2CCN(C(=O)c3cc4c(Cl)cccc4[nH]3)CC2)cc1
22000 nM	–	–	Not Active	Not Active	–	COc1ccc(OCCN2CCN(C(=O)c3ccncc3)CC2)cc1
116 nM	> 100000 nM	4600 nM	–	–	–	COc1ccc(C(=O)N2CCN(CCOc3cccnc3)CC2)c(C)c1
611 nM	> 100000 nM	> 50000 nM	–	–	–	COc1ccc(OCCN2CCN(C(=O)c3cc4cc(C)ccc4[nH]3)CC2)cc1
–	–	–	Not Active	Not Active	–	O=C(c1cc2ccccc2[nH]1)N1CCN(CCOc2ccc([N+](=O)[O-])cc2)CC1
–	–	617 nM	Not Active	–	–	O=C(c1cc2cccc(Cl)c2[nH]1)N1CCN(CCOc2cccnc2)CC1
–	–	> 100000 nM	Not Active	–	–	COc1ccc(OCCN2CCN(C(=O)c3cc4ncccc4[nH]3)CC2)cc1
–	> 50000 nM	–	–	Not Active	Not Active	COc1ccc(C(=O)N2CCN(CCOc3ccc(OC(F)(F)F)cc3)CC2)cc1
118 nM	> 100000 nM	6100 nM	–	–	–	O=C(c1ccc[nH]1)N1CCN(CCOc2cccnc2)CC1
2500 nM	> 100000 nM	–	–	Not Active	–	COc1ccc(OCCN2CCN(C(=O)c3ccccc3OC)CC2)cc1
2100 nM	> 100000 nM	> 50000 nM	–	–	–	COc1ccc(OCCN2CCN(C(=O)c3ccc(OC)cn3)CC2)cc1
210 nM	–	–	–	–	–	COc1ccc(OCCN2CCN(C(=O)c3c[nH]c4ccccc34)CC2)cc1
–	–	4100 nM	Not Active	–	–	O=C(c1n[nH]c2ccccc12)N1CCN(CCOc2cccnc2)CC1
473 nM	> 100000 nM	10100 nM	–	–	–	COc1ccc(OCCN2CCN(C(=O)c3cc4cccc(C)c4[nH]3)CC2)cc1
–	–	–	Not Active	Not Active	Not Active	COc1ccc(OCCC2CCN(C(=O)c3cc4ccccc4[nH]3)CC2)cc1
–	–	–	Not Active	Not Active	–	COc1ccc(OCCN2CCN(C(=O)c3cc4cc(Cl)ccc4[nH]3)CC2)cc1
37.6 nM	–	6200 nM	Not Active	–	–	Cn1c(C(=O)N2CCN(CCOc3cccnc3)CC2)cc2ccccc21
980 nM	> 10000 nM	6000 nM	–	–	–	COc1ccc(OCCN2CCN(C(=O)c3cc4cccc(OC)c4[nH]3)CC2)cc1
60.9 nM	–	–	–	–	–	O=C(c1cc2ccccc2[nH]1)N1CCN(CCOc2ccc3[nH]ccc3c2)CC1

EC50 ([1]; read-out: EC50)	IC50 ([2]; read-out: IC50)	EC50 ([3]; read-out: EC50)	IC50 [2]	EC50 [3]	EC50 [1]	SMILES
13 nM	–	1300 nM	Not Active	–	–	Cc1ccc2[nH]c(C(=O)N3CCN(CCOc4cccnc4)CC3)cc2c1
98 nM	–	–	–	–	–	COc1ccc(C(=O)N2CCN(CCOc3cccc(OC)c3)CC2)cc1
9700 nM	–	–	Not Active	Not Active	–	COc1ccc(OCCN2CCN(C(C)=O)CC2)cc1
81 nM	–	–	–	–	–	O=C(c1cc2ccncc2[nH]1)N1CCN(CCOc2cccnc2)CC1
–	> 50000 nM	–	–	Not Active	Not Active	COc1ccc(OCCN2CCN(c3ccc(OC)cc3)CC2)cc1
1900 nM	> 100000 nM	4400 nM	–	–	–	COc1ccc(OCCN2CCN(C(=O)c3[nH]c4ccccc4c3C)CC2)cc1
17 nM	> 100000 nM	2900 nM	–	–	–	COc1ccc(C(=O)N2CCN(CCOc3cccnc3)CC2)cc1
–	–	2400 nM	Not Active	–	–	O=C(c1nc2ccccc2[nH]1)N1CCN(CCOc2cccnc2)CC1
50 nM	–	128 nM	Not Active	–	–	COc1cccc(OCCN2CCN(C(=O)c3cc4cccnc4[nH]3)CC2)c1
–	–	180 nM	Not Active	–	–	Cc1cccc2[nH]c(C(=O)N3CCN(CCOc4cccnc4)CC3)cc12
810 nM	> 100000 nM	7800 nM	–	–	–	COc1ccc(OCCN2CCN(C(=O)c3cc4ccncc4[nH]3)CC2)cc1
550 nM	–	–	–	–	–	COc1ccc(OCCN2CCN(C(=O)c3cccc(OC)c3)CC2)cc1
290 nM	–	–	–	–	–	O=C(c1cc2ccccc2[nH]1)N1CCN(CCOc2ccc3c(c2)OCO3)CC1
–	–	–	–	–	Not Active	COc1ccc(OCCCCN2CCN(C(=O)c3cc4ccccc4[nH]3)CC2)cc1
> 50000 nM	> 50000 nM	–	–	Not Active	–	COc1ccc(OCCN2CCN(C(=O)C3CCCCC3)CC2)cc1
–	> 100000 nM	–	–	Not Active	–	O=C(c1cc2ccccc2[nH]1)N1CCN(CCOc2ccc(Br)cc2)CC1
200 nM	–	3000 nM	Not Active	–	–	O=C(c1cc2ncccc2[nH]1)N1CCN(CCOc2cccnc2)CC1
520 nM	> 100000 nM	7800 nM	–	–	–	COc1ccc(OCCN2CCN(C(=O)c3cc4cc(OC)ccc4[nH]3)CC2)cc1
–	–	2600 nM	Not Active	–	–	COc1ccc2[nH]c(C(=O)N3CCN(CCOc4cccnc4)CC3)cc2c1

SMILES	EC50 ([1]; read-out: EC50)	IC50 ([2]; read-out: IC50)	EC50 ([3]; read-out: EC50)	IC50 [2]	EC50 [3]	EC50 [1]
COc1ccc(OCC(C)N2CCN(C(=O)c3ccc(OC)cc3)CC2)cc1 (racemic)	–	> 100000 nM	–	–	Not Active	–
